This is an account of results in patent US9334286B2, “Pharmacologically active compounds” (Cancer Research Technology Limited, priority 2012, dated 2016).

Usually IC50 stands for the concentration that inhibits the measured activity by half. Higher therefore signals a need for much substance.

This assay deals with full length MPS1 (Homo sapiens (Human), UniProt P33981). The assay can be described thus: Measurement of inhibition of MPS1 kinase (Caliper EZ reader, fluorescent labelled peptide H236). In kind it is biochemical. As to conditions: full length MPS1 12.5 nM or 3 nM, peptide H236 5 μM, ATP 10 μM, 60 min at room temperature.
full length MPS1, sequence (P33981 whole entry): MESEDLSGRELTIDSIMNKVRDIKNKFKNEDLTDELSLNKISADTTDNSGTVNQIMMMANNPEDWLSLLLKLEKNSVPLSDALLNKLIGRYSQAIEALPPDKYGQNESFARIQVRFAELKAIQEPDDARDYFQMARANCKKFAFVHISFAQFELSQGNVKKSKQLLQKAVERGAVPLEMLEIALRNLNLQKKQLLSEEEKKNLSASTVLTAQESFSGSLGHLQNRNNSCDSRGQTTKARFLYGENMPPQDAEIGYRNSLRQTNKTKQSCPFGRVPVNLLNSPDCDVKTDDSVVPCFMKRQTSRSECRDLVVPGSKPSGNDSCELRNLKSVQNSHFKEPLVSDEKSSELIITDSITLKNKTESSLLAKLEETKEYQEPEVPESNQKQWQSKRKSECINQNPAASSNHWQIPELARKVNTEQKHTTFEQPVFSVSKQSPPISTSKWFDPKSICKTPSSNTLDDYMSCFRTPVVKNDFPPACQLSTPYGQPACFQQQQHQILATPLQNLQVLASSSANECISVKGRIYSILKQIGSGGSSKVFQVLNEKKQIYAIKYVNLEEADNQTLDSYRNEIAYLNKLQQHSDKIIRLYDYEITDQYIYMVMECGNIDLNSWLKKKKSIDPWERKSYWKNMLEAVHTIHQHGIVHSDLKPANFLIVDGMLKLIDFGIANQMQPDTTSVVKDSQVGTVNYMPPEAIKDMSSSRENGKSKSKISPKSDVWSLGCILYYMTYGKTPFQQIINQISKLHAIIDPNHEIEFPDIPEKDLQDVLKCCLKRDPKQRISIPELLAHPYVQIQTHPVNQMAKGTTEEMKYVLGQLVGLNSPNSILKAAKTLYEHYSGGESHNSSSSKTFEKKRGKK
In the case of `COc1cc(-c2cnc(C)n2C)ccc1Nc1cc2cc(-c3cnn(C(C)C)c3)ccc2cn1` [Example 15, N-(4-(1,2-dimethyl-1H-imidazol-5-yl)-2-methoxyphenyl)-6-(1-isopropyl-1H-pyrazol-4-yl)isoquinolin-3-amine], it took 3 nM to reach half-maximal inhibition (IC50).
Under `COc1cc(-c2cnc(C#N)n2C)ccc1Nc1cc2cc(-c3cnn(CC(C)(C)O)c3)ccc2cn1` [Example 84, 5-(4-((6-(1-(2-Hydroxy-2-methylpropyl)-1H-pyrazol-4-yl)isoquinolin-3-yl)amino)-3-methoxyphenyl)-1-methyl-1H-imidazole-2-carbonitrile] stands 5 nM.
The figure for `COc1cc(C(=O)N2CC(OC)C2)ccc1Nc1cc2cc(-c3cnn(CC(O)C(F)(F)F)c3)ccc2cn1` (racemic) [Example 75, (3-Methoxy-4-((6-(1-(3,3,3-trifluoro-2-hydroxypropyl)-1H-pyrazol-4-yl)isoquinolin-3-yl)amino)-phenyl)(3-methoxyazetidin-1-yl)methanone] is 3 nM; for `COc1cc(C(=O)N(C)C)ccc1Nc1cc2cc(-c3cnn(CC(C)(C)O)c3)ccc2cn1` [Example 60, 4-((6-(1-(2-Hydroxy-2-methylpropyl)-1H-pyrazol-4-yl)isoquinolin-3-yl)amino)-3-methoxy-N,N-dimethylbenzamide] it is 2 nM; for `COc1cc(-c2cnc(C)n2C)ccc1Nc1cc2cc(-c3cnn(CC4(O)CCC4)c3)ccc2cn1` [Example 43, 1-((4-(3-((4-(1,2-Dimethyl-1H-imidazol-5-yl)-2-methoxyphenyl)amino)isoquinolin-6-yl)-1H-pyrazol-1-yl)methyl)cyclobutanol] it is 3 nM.
Under `Cc1ncc(-c2ccc(Nc3cc4cc(-c5cnn(CC(C)(C)O)c5)ccc4cn3)c(Cl)c2)n1C` [Example 42, 1-(4-(3-((2-Chloro-4-(1,2-dimethyl-1H-imidazol-5-yl)phenyl)amino)isoquinolin-6-yl)-1H-pyrazol-1-yl)-2-methylpropan-2-ol] stands 3 nM.
In turn, `CCn1cc(-c2ccc3cnc(Nc4ccc(-c5cnc(C)n5C)cc4OC)cc3c2)cn1` [Example 10, N-(4-(1,2-dimethyl-1H-imidazol-5-yl)-2-methoxyphenyl)-6-(1-ethyl-1H-pyrazol-4-yl)isoquinolin-3-amine] displayed an IC50 of 7 nM.
